Patent US20250361268A1, “NOVEL ANTI-INFLAMMATORY PEPTIDE AND USE THEREOF” (NOVACELL TECHNOLOGY INC., priority 2022, published 2025)
Peptide text beside a SMILES is read from it.

What was measured:
[1] = target: T1, FPR2 (Homo sapiens, UniProt P25090); assay: Change in calcium activity by peptide (Fura-2) in RBL cells overexpressing FPR2; format: cell-based; conditions: calcium activity (Fura-2), graded per Table 3, read-out: EC50 for [Ca^2+] FPR2
T1 construct: expressed in transfected cells; host or cells: RBL cells (RBL-FPR2)
T1 sequence (P25090 1-351): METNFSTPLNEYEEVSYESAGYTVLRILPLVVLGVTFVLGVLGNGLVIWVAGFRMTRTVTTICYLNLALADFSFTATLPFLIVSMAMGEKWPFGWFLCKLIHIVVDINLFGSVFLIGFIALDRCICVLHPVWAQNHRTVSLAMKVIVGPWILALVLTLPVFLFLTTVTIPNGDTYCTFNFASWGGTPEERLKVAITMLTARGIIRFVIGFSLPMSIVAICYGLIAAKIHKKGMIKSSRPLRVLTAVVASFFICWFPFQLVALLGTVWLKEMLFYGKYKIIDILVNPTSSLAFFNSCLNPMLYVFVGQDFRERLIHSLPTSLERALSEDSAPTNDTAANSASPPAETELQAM
Summary of the method: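 Rat basophilic leukemia cells overexpressing FPR2 loaded with Fura-2 (37 °C 1 h, then RT 30 min dark); peptides (0.5 mM stocks in water or 50% DMSO) diluted in HBSS + 20 mM HEPES and added on a plate reader, intracellular Ca2+ change recorded.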

[2] = target: T2, FPR1 (Homo sapiens, UniProt P21462); assay: Change in calcium activity by peptide, FPR1 activation effect; format: cell-based; conditions: calcium activity (Fura-2), graded per Table 3, read-out: EC50 for [Ca^2+] FPR1
T2 sequence (P21462 1-350): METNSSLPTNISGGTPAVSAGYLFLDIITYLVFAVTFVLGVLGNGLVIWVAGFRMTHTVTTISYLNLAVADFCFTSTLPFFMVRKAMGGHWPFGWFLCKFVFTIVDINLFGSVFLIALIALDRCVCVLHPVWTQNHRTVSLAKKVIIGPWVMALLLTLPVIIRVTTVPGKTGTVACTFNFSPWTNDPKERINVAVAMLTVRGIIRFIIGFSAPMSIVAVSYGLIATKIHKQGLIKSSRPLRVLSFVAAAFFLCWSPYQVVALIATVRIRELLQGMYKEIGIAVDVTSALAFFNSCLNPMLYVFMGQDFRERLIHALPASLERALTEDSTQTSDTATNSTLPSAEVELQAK
Summary of the method: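 Cells plated at 3×10^5 per well the day before were loaded with Fura-2 for 1 h at 37 °C, then kept 30 min in the dark at room temperature. Peptide-evoked calcium changes were recorded on a FlexStation 3.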

| Structure (SMILES) | EC50 [1] [µM] | EC50 [2] [µM] |
| --- | --- | --- |
| CCCC(=O)N[C@@H](CCSC)C(=O)N[C@@H](CCCCN)C(=O)N[C@@H](Cc1ccc(O)cc1)C(=O)N[C@@H](Cc1c[nH]c2ccccc12)C(=O)N[C@@H](Cc1ccc(O)cc1)C(=O)N[C@H](CCSC)C(N)=O [Peptide 91] (HELM PEPTIDE1{[CCCC(=O)[*:2]].M.K.Y.W.Y.[dM].[am]}$$$$V2.0) | 0.011 to 0.1 | > 10 |
| CSCC[C@@H](NC(=O)[C@H](Cc1ccc(O)cc1)NC(=O)[C@@H](NC(=O)[C@H](Cc1ccc(O)cc1)NC(=O)[C@H](CCCNC(=N)N)NC(=O)[C@H](Cc1c[nH]c2ccccc12)NC(=O)[C@@H](N)CCCNC(=N)N)[C@@H](C)O)C(N)=O [Peptide 157] (HELM PEPTIDE1{R.W.R.Y.T.Y.[dM].[am]}$$$$V2.0) | < 0.01 | > 10 |
| CSCC[C@H](NC(=O)[C@@H](N)CCCCN)C(=O)N[C@@H](CCCCN)C(=O)N[C@@H](Cc1ccc(O)cc1)C(=O)N[C@@H](CCCCN)C(=O)N[C@H](C(=O)N[C@H](CCSC)C(N)=O)C(C)C [Peptide 9] (HELM PEPTIDE1{K.M.K.Y.K.V.[dM].[am]}$$$$V2.0) | 0.011 to 0.1 | > 10 |
| CSCC[C@H](N)C(=O)N[C@@H](CCCNC(=N)N)C(=O)N[C@@H](Cc1ccc(O)cc1)C(=O)N[C@@H](Cc1c[nH]c2ccccc12)C(=O)N[C@@H](Cc1ccc(O)cc1)C(=O)N[C@H](CCSC)C(N)=O [Peptide 85] (HELM PEPTIDE1{M.R.Y.W.Y.[dM].[am]}$$$$V2.0) | < 0.01 | > 10 |
| CCCCCCCC(=O)N[C@@H](CCCNC(=N)N)C(=O)N[C@@H](CCSC)C(=O)N[C@@H](CCCNC(=N)N)C(=O)N[C@@H](Cc1ccc(O)cc1)C(=O)N[C@@H](CCCCN)C(=O)N[C@H](C(=O)N[C@H](CCSC)C(N)=O)C(C)C [Peptide 8] (HELM PEPTIDE1{[CCCCCCCC(=O)[*:2]].R.M.R.Y.K.V.[dM].[am]}$$$$V2.0) | 0.011 to 0.1 | > 10 |
| CSCC[C@@H](NC(=O)[C@H](Cc1ccc(O)cc1)NC(=O)[C@H](CC(C)C)NC(=O)[C@H](Cc1ccc(O)cc1)NC(=O)[C@H](CCCNC(=N)N)NC(=O)[C@H](Cc1c[nH]c2ccccc12)NC(=O)[C@@H](N)CCCNC(=N)N)C(N)=O [Peptide 154] (HELM PEPTIDE1{R.W.R.Y.L.Y.[dM].[am]}$$$$V2.0) | < 0.01 | > 10 |
| CSCC[C@H](NC(=O)[C@@H]1CCCN1)C(=O)N[C@@H](CCCCN)C(=O)N[C@@H](Cc1ccc(O)cc1)C(=O)N[C@@H](CCCCN)C(=O)N[C@H](C(=O)N[C@H](CCSC)C(N)=O)C(C)C [Peptide 25] (HELM PEPTIDE1{P.M.K.Y.K.V.[dM].[am]}$$$$V2.0) | < 0.01 | > 10 |
| CSCC[C@@H](NC(=O)[C@H](Cc1ccc(O)cc1)NC(=O)[C@H](Cc1c[nH]c2ccccc12)NC(=O)[C@H](Cc1ccc(O)cc1)NC(=O)[C@H](CCCCN)NC(=O)[C@H](Cc1c[nH]c2ccccc12)NC(=O)[C@H](CCCCN)NC(C)=O)C(N)=O [Peptide 80] (HELM PEPTIDE1{[ac].K.W.K.Y.W.Y.[dM].[am]}$$$$V2.0) | < 0.01 | > 10 |
| CSCC[C@H](NC(=O)[C@H](CCCNC(=N)N)NC(C)=O)C(=O)N[C@@H](CCCNC(=N)N)C(=O)N[C@@H](Cc1ccc(O)cc1)C(=O)N[C@@H](Cc1ccc(O)cc1)C(=O)N[C@@H](Cc1ccc(O)cc1)C(=O)N[C@H](CCSC)C(N)=O [Peptide 125] (HELM PEPTIDE1{[ac].R.M.R.Y.Y.Y.[dM].[am]}$$$$V2.0) | < 0.01 | > 10 |
| CSCC[C@H](NC(=O)[C@@H]1CCCN1C(C)=O)C(=O)N[C@@H](CCCNC(=N)N)C(=O)N[C@@H](Cc1ccc(O)cc1)C(=O)N[C@@H](CCCCN)C(=O)N1CCC[C@H]1C(=O)N[C@H](CCSC)C(N)=O [Peptide 63] (HELM PEPTIDE1{[ac].P.M.R.Y.K.P.[dM].[am]}$$$$V2.0) | < 0.01 | > 10 |
| CCCC(=O)N[C@@H](Cc1c[nH]cn1)C(=O)N[C@@H](CCSC)C(=O)N[C@@H](CCCNC(=N)N)C(=O)N[C@@H](Cc1ccc(O)cc1)C(=O)N[C@@H](CCCCN)C(=O)N1CCC[C@H]1C(=O)N[C@H](CCSC)C(N)=O [Peptide 60] (HELM PEPTIDE1{[CCCC(=O)[*:2]].H.M.R.Y.K.P.[dM].[am]}$$$$V2.0) | < 0.01 | > 10 |
| CC[C@H](C)[C@H](N)C(=O)N[C@@H](CCCCN)C(=O)N[C@@H](Cc1ccccc1)C(=O)N[C@@H](CCCCN)C(=O)N[C@H](C(=O)N[C@H](CCSC)C(N)=O)C(C)C [Peptide 132] (HELM PEPTIDE1{I.K.F.K.V.[dM].[am]}$$$$V2.0) | 0.011 to 0.1 | > 10 |
| CSCC[C@@H](NC(=O)[C@@H]1CCCN1C(=O)[C@H](Cc1ccc(O)cc1)NC(=O)[C@H](Cc1ccc(O)cc1)NC(=O)[C@H](CCCNC(=N)N)NC(=O)[C@H](Cc1c[nH]c2ccccc12)NC(C)=O)C(N)=O [Peptide 122] (HELM PEPTIDE1{[ac].W.R.Y.Y.P.[dM].[am]}$$$$V2.0) | < 0.01 | 0.101 to 1 |
| CSCC[C@H](NC(=O)[C@@H]1CCCN1)C(=O)N[C@@H](CCCNC(=N)N)C(=O)N[C@@H](Cc1ccc(O)cc1)C(=O)N[C@@H](CCCCN)C(=O)N[C@@H](Cc1ccc(O)cc1)C(=O)N[C@H](CCSC)C(N)=O [Peptide 46] (HELM PEPTIDE1{P.M.R.Y.K.Y.[dM].[am]}$$$$V2.0) | < 0.01 | > 10 |
| CCCC(=O)N[C@@H](CCCNC(=N)N)C(=O)N[C@@H](CCSC)C(=O)N[C@@H](CCCNC(=N)N)C(=O)N[C@@H](Cc1ccc(O)cc1)C(=O)N[C@@H](Cc1c[nH]c2ccccc12)C(=O)N1CCC[C@H]1C(=O)N[C@H](CCSC)C(N)=O [Peptide 108] (HELM PEPTIDE1{[CCCC(=O)[*:2]].R.M.R.Y.W.P.[dM].[am]}$$$$V2.0) | < 0.01 | 0.101 to 1 |
| CSCC[C@H](N)C(=O)N[C@@H](CCCNC(=N)N)C(=O)N[C@@H](Cc1ccc(O)cc1)C(=O)N[C@@H](Cc1c[nH]c2ccccc12)C(=O)N1CCC[C@H]1C(=O)N[C@H](CCSC)C(N)=O [Peptide 110] (HELM PEPTIDE1{M.R.Y.W.P.[dM].[am]}$$$$V2.0) | < 0.01 | 0.101 to 1 |
| CSCC[C@@H](NC(=O)[C@@H](NC(=O)[C@H](CC(C)C)NC(=O)[C@H](Cc1ccc(O)cc1)NC(=O)[C@H](CCCNC(=N)N)NC(=O)[C@H](Cc1c[nH]c2ccccc12)NC(=O)[C@@H](N)CCCNC(=N)N)C(C)C)C(N)=O [Peptide 158] (HELM PEPTIDE1{R.W.R.Y.L.V.[dM].[am]}$$$$V2.0) | 0.011 to 0.1 | 1 to 10 |
| CSCC[C@H](NC(=O)[C@@H]1CCCN1)C(=O)N[C@@H](CCCNC(=N)N)C(=O)N[C@@H](Cc1ccc(O)cc1)C(=O)N[C@@H](CCCCN)C(=O)N1CCC[C@H]1C(=O)N[C@H](CCSC)C(N)=O [Peptide 62] (HELM PEPTIDE1{P.M.R.Y.K.P.[dM].[am]}$$$$V2.0) | < 0.01 | > 10 |
| CSCC[C@H](NC(=O)[C@@H](N)CCCNC(=N)N)C(=O)N[C@@H](CCCNC(=N)N)C(=O)N[C@@H](Cc1ccc(O)cc1)C(=O)N[C@@H](CCCNC(=N)N)C(=O)N[C@H](C(=O)N[C@H](CCSC)C(N)=O)C(C)C [Peptide 30] (HELM PEPTIDE1{R.M.R.Y.R.V.[dM].[am]}$$$$V2.0) | < 0.01 | > 10 |
| CC[C@H](C)[C@H](N)C(=O)N[C@@H](CCCCN)C(=O)N[C@@H](Cc1ccccc1)C(=O)N[C@@H](CCCCN)C(=O)N1CCC[C@H]1C(=O)N[C@H](CCSC)C(N)=O [Peptide 133] (HELM PEPTIDE1{I.K.F.K.P.[dM].[am]}$$$$V2.0) | < 0.01 | > 10 |
| CSCC[C@H](NC(=O)[C@@H](N)CCCNC(=N)N)C(=O)N[C@@H](CCCNC(=N)N)C(=O)N[C@@H](Cc1ccc(O)cc1)C(=O)N[C@@H](CCCCN)C(=O)N[C@H](C(=O)N[C@H](CCSC)C(N)=O)C(C)C [Peptide 5] (HELM PEPTIDE1{R.M.R.Y.K.V.[dM].[am]}$$$$V2.0) | < 0.01 | > 10 |
| CCCCCCCC(=O)N[C@@H](CCSC)C(=O)N[C@@H](CCCNC(=N)N)C(=O)N[C@@H](Cc1ccc(O)cc1)C(=O)N[C@@H](CCCCN)C(=O)N1CCC[C@H]1C(=O)N[C@H](CCSC)C(N)=O [Peptide 57] (HELM PEPTIDE1{[CCCCCCCC(=O)[*:2]].M.R.Y.K.P.[dM].[am]}$$$$V2.0) | < 0.01 | > 10 |
| CCCC(=O)N[C@@H](CCSC)C(=O)N[C@@H](CCCNC(=N)N)C(=O)N[C@@H](Cc1ccc(O)cc1)C(=O)N[C@@H](CCCCN)C(=O)N[C@@H](Cc1ccc(O)cc1)C(=O)N[C@H](CCSC)C(N)=O [Peptide 43] (HELM PEPTIDE1{[CCCC(=O)[*:2]].M.R.Y.K.Y.[dM].[am]}$$$$V2.0) | 0.011 to 0.1 | > 10 |
